± gives the expanded uncertainty stated by the source.
Assay: xn = mol fraction of the nth substance listed
Conditions: 101 kPa, Liquid

Cc1ccccc1C [1,2-dimethylbenzene] + CN(C)C=O
Conditions | mass density [kg/m3]
293.15 K, x1 = 0.0555 | 943.56 ± 0.23
293.15 K, x1 = 0.1111 | 938.71 ± 0.24
293.15 K, x1 = 0.1754 | 933.3 ± 0.24
293.15 K, x1 = 0.2352 | 928.47 ± 0.25
293.15 K, x1 = 0.2952 | 923.8 ± 0.26
293.15 K, x1 = 0.3562 | 919.23 ± 0.27
293.15 K, x1 = 0.4251 | 914.29 ± 0.27
293.15 K, x1 = 0.4865 | 910.06 ± 0.28
293.15 K, x1 = 0.5484 | 905.95 ± 0.29
293.15 K, x1 = 0.612 | 901.89 ± 0.29
293.15 K, x1 = 0.6785 | 897.8 ± 0.3
293.15 K, x1 = 0.7325 | 894.58 ± 0.3
293.15 K, x1 = 0.7954 | 890.96 ± 0.31
293.15 K, x1 = 0.8654 | 887.04 ± 0.32
293.15 K, x1 = 0.9325 | 883.4 ± 0.32
303.15 K, x1 = 0.0652 | 933.58 ± 0.24
303.15 K, x1 = 0.1251 | 928.39 ± 0.25
303.15 K, x1 = 0.1854 | 923.37 ± 0.26
303.15 K, x1 = 0.2462 | 918.5 ± 0.27
303.15 K, x1 = 0.3125 | 913.42 ± 0.27
303.15 K, x1 = 0.3785 | 908.59 ± 0.28
303.15 K, x1 = 0.4358 | 904.56 ± 0.29
303.15 K, x1 = 0.4962 | 900.47 ± 0.29
303.15 K, x1 = 0.5521 | 896.83 ± 0.3
303.15 K, x1 = 0.6125 | 893.04 ± 0.31
303.15 K, x1 = 0.6784 | 889.05 ± 0.31
303.15 K, x1 = 0.7451 | 885.17 ± 0.32
303.15 K, x1 = 0.8012 | 882.01 ± 0.32
303.15 K, x1 = 0.8658 | 878.48 ± 0.33
303.15 K, x1 = 0.9485 | 874.12 ± 0.33
313.15 K, x1 = 0.0441 | 926.11 ± 0.26
313.15 K, x1 = 0.1025 | 920.99 ± 0.26
313.15 K, x1 = 0.1762 | 914.82 ± 0.27
313.15 K, x1 = 0.2341 | 910.18 ± 0.28
313.15 K, x1 = 0.2951 | 905.51 ± 0.29
313.15 K, x1 = 0.3756 | 899.63 ± 0.3
313.15 K, x1 = 0.4415 | 895.06 ± 0.3
313.15 K, x1 = 0.5012 | 891.08 ± 0.31
313.15 K, x1 = 0.5685 | 886.8 ± 0.32
313.15 K, x1 = 0.6215 | 883.55 ± 0.32
313.15 K, x1 = 0.6865 | 879.72 ± 0.33
313.15 K, x1 = 0.7451 | 876.39 ± 0.33
313.15 K, x1 = 0.8021 | 873.25 ± 0.34
313.15 K, x1 = 0.8654 | 869.88 ± 0.34
313.15 K, x1 = 0.9448 | 865.79 ± 0.35
323.15 K, x1 = 0.0485 | 916.16 ± 0.27
323.15 K, x1 = 0.1124 | 910.62 ± 0.28
323.15 K, x1 = 0.1852 | 904.61 ± 0.29
323.15 K, x1 = 0.2521 | 899.35 ± 0.3
323.15 K, x1 = 0.3251 | 893.91 ± 0.3
323.15 K, x1 = 0.3952 | 888.96 ± 0.31
323.15 K, x1 = 0.4658 | 884.2 ± 0.32
323.15 K, x1 = 0.5315 | 879.99 ± 0.33
323.15 K, x1 = 0.5952 | 876.08 ± 0.33
323.15 K, x1 = 0.6584 | 872.37 ± 0.34
323.15 K, x1 = 0.7251 | 868.61 ± 0.34
323.15 K, x1 = 0.7952 | 864.81 ± 0.35
323.15 K, x1 = 0.8456 | 862.18 ± 0.35
323.15 K, x1 = 0.9012 | 859.35 ± 0.36
323.15 K, x1 = 0.9599 | 856.45 ± 0.36
333.15 K, x1 = 0.0521 | 906.08 ± 0.29
333.15 K, x1 = 0.1245 | 899.89 ± 0.3
333.15 K, x1 = 0.1895 | 894.6 ± 0.3
333.15 K, x1 = 0.2451 | 890.29 ± 0.31
333.15 K, x1 = 0.3021 | 886.06 ± 0.32
333.15 K, x1 = 0.3685 | 881.35 ± 0.32
333.15 K, x1 = 0.4214 | 877.76 ± 0.33
333.15 K, x1 = 0.4912 | 873.24 ± 0.34
333.15 K, x1 = 0.5584 | 869.09 ± 0.34
333.15 K, x1 = 0.6121 | 865.92 ± 0.35
333.15 K, x1 = 0.6725 | 862.48 ± 0.35
333.15 K, x1 = 0.7315 | 859.26 ± 0.36
333.15 K, x1 = 0.7943 | 855.95 ± 0.36
333.15 K, x1 = 0.8651 | 852.38 ± 0.37
333.15 K, x1 = 0.9432 | 848.58 ± 0.37
343.15 K, x1 = 0.0625 | 895.2 ± 0.3
343.15 K, x1 = 0.1325 | 889.33 ± 0.31
343.15 K, x1 = 0.1952 | 884.33 ± 0.32
343.15 K, x1 = 0.2658 | 878.99 ± 0.33
343.15 K, x1 = 0.3321 | 874.24 ± 0.34
343.15 K, x1 = 0.3965 | 869.86 ± 0.34
343.15 K, x1 = 0.4652 | 865.41 ± 0.35
343.15 K, x1 = 0.5325 | 861.27 ± 0.35
343.15 K, x1 = 0.5912 | 857.83 ± 0.36
343.15 K, x1 = 0.6524 | 854.4 ± 0.37
343.15 K, x1 = 0.7125 | 851.16 ± 0.37
343.15 K, x1 = 0.7895 | 847.19 ± 0.38
343.15 K, x1 = 0.8462 | 844.4 ± 0.38
343.15 K, x1 = 0.9012 | 841.76 ± 0.38
343.15 K, x1 = 0.9577 | 839.14 ± 0.39
353.15 K, x1 = 0.0715 | 884.27 ± 0.32
353.15 K, x1 = 0.1252 | 879.83 ± 0.33
353.15 K, x1 = 0.1858 | 875.05 ± 0.33
353.15 K, x1 = 0.2521 | 870.08 ± 0.34
353.15 K, x1 = 0.3215 | 865.16 ± 0.35
353.15 K, x1 = 0.3865 | 860.79 ± 0.36
353.15 K, x1 = 0.4251 | 858.31 ± 0.36
353.15 K, x1 = 0.4851 | 854.59 ± 0.37
353.15 K, x1 = 0.5584 | 850.27 ± 0.37
353.15 K, x1 = 0.6221 | 846.71 ± 0.38
353.15 K, x1 = 0.6825 | 843.48 ± 0.38
353.15 K, x1 = 0.7551 | 839.78 ± 0.39
353.15 K, x1 = 0.8154 | 836.84 ± 0.39
353.15 K, x1 = 0.8851 | 833.58 ± 0.4
353.15 K, x1 = 0.9411 | 831.05 ± 0.4

From the NIST ThermoML archive (doi:10.1016/j.jct.2006.07.017)
